In data set [1] the test system is human LPS treated DCs. In words: Cytokine secretion of human DCs (multiplex assay). The conditions noted are these: for IFN-g / IL-5 / IL-10 / IL-12: 200 μl supernatant or amino acid 10 μM, 14 h. It is filed as cell-based. Here is the method: (§1) Peripheral blood mononuclear cells (PBMC) were isolated from heparinized whole blood by density gradient centrifugation (2000 rpm, 22° C., 20 min) (Biocoll, Biochrom AG, Berlin, Germany). […] Purity and viability of DCs was assessed by flow cytometry (FIG. 9A-C).
[…] For probiotic supernatants, blank CDM1 was used as medium control. […] IL-5, IFN-gamma, IL-12, and IL-10, were quantified by a multiplex assay (Milliplex Human Cytokine Immunoassay, Millipore GMbH Schalbach, Germany) as described by the manufacturer.

The nature of data set [2]: Oral supplementation of mice with D-tryptophan in drinking water: serum levels and tolerability. The format is in vivo, Balb/c mice. The settings on record: 14 days. Here is the method:
Enantiomeric separation of D-Tryptophan in murine sera. The investigator (C.M.) was blinded to the murine intervention groups. Due to the abundance of interfering proteins a protein precipitation was done. For this purpose the sera were thawed on ice and 20 μL of each sample were vigorously shaken with 80 μL 4° C. methanol (Chromasolve, Fluka, St. Louis, USA) and centrifuged (15,000×g at 4° C. for 15 min). The supernatants were taken, evaporated and resolved in water before injection. The derivation was performed as described for bacterial supernatants with some modifications as recently published (Müller et al., J Chromatogr A. 2014 Jan. 10; 1324:109-14). For quantification human serum was spiked with different concentrations (0.005-0.15 μg/mL) of D-Tryptophan and randomly analyzed.
Animals and oral supplementation with D-tryptophan. […]

The test system of data set [3] is costimulatory molecules of LPS-stimulated human dendritic cells. Kind of data set: Costimulatory molecules on LPS-stimulated human monocyte-derived dendritic cells (flow cytometry). It is filed as cell-based. The settings on record: Dendritic cell, 24 h, LPS 0.1 μg/ml, D-amino acid 10 μM, mean ± SD of three experiments, relative to LPS-induced expression. As for the experimental part: Generation of human monocyte-derived dendritic cells. Peripheral venous blood was obtained from healthy volunteers aged between 20 and 50 years after informed consent. Individuals with allergic disease, acute infection or taking any medication 20 days prior to blood sampling or any history of smoking (personal interview) were excluded prior to blood sampling. All experiments were conducted according to the principles expressed in the Declaration of Helsinki.
as §1
Costimulatory molecules on human DCs. The following primary monoclonal antibodies were used: CD83 fluorescein isothiocyanate (FITC); CD1a phycoerythrin (PE); CD86-FITC; CD80-PE; CD14 allophycocyanine (APC); CD40-APC; CD3-peridinin chlorophyll protein (PerCP); HLA-DR-PerCP; mouse immunoglobulins G1 (IgG1) mouse immunoglobulins G1 (IgG1) κ were used as isotype controls using the corresponding fluorochromes (all purchased from BD Biosciences, Heidelberg, Germany). To account for donor dependent variability of DC surface markers, all data were normalized to the expression induced by LPS which was set to 100% after subtraction of background values (FACS Canto, FACS DIVA software, Version 5.0.3, BD Biosciences, Heidelberg, Germany). Murine DC subsets and CD4^+ T cells. Single cell suspensions of splenocytes were obtained by filtering spleens through a 70 μm strainer. Samples were stained with CD3-PB (1:200, Biolegend, San Diego, USA), CD4-APC-H7 (BD, 1:400), CD11c-APC-Cy7 (1:100), Mhc-II-Percp-Cy5 (1:100), CD11b-FITC (1:100), CD80-AF647, CD40-APC (1:100). For intracellular cytokines, total spleen cells were stimulated with anti-CD3 (4 μg/mL, BD Bioscience, Heidelberg, Germany) and anti-CD28 (30 ng/mL, BD Bioscience, Heidelberg, Germany) for 16 h. 1×10^6 of total lung cells were stimulated for 16 h with MACSiBead particles coated with anti-CD3 and anti-CD28 using the T cell activation/expansion kit (Miltenyi Biotec, Bergisch Gladbach, Germany) in TexMACS medium (Miltenyi Biotec) according to the manufactures recommendations. Prior to staining, cells were treated with monensin (0.7 μL/mL, BD Golgi Stop, BD Bioscience, Heidelberg, Germany) for 6 h at 37° C. and intracellularly stained for II-4-PE (1:100, eBioscience, Vienna, Austria according to the manufacturer's protocols. Intracellular staining for Foxp3 was performed by using the Foxp3/Transcription Factor Staining buffer set (eBiosciences, Vienna, Austria) according to the manufacturer's recommendations.
Bioassays for screening for immune modulatory activity in probiotic supernatants. Two biological assays based on down-modulation of costimulatory molecules on human DCs, and of CCL17-secretion by a human Hodgkin lymphoma T cell line (KM-H2) were set up. Human immature DCs were matured with 0.1 μg/mL lipopolysaccharide (LPS) from E. coli (Sigma-Aldrich, St. Louis, USA) in the presence or absence of 200 μL bacteria free supernatants for 24 h followed by flow cytometric analysis of costimulatory molecules.

Where two headings read alike, the source gives them in different places.

Consider `N[C@H](Cc1c[nH]c2ccccc12)C(=O)O` [D-tryptophan], for which, in data set [1] (highly enriched DCs), the “IL-10 in DC cultures” value is listed as “strongly induced”; the “LPS-induced IFN-g, IL-12 and IL-5 in DC cultures” value is reported as “lowered”. Also, in data set [1] (with LPS 0.1 μg/ml), the “Ratio IL-5/IFN-g” value is on record as 0.018, the “Ratio IL-10/IL-12” value is recorded as 0.232, the IFN-g was 1129.50 pg/mL and the IL-5 was 20.60 pg/mL. In data set [1] (with LPS 0.1 μg/ml), this compound showed an IL-10 of 202.50 pg/mL and an IL-12 of 871.90 pg/mL. Further, in data set [1] (without LPS), the “Ratio IL-5/IFN-g” value is listed as 0.470, the “Ratio IL-10/IL-12” value stood at 0.690, the IFN-g turned out to be 21.90 pg/mL and the IL-5 came out at 10.30 pg/mL. In data set [1] (without LPS), this compound displayed an IL-10 of 56.90 pg/mL and an IL-12 of 82.50 pg/mL. The “changes in behavior or body weight” value in data set [2] (1.8 or 18 mg/dL in drinking water, compared to controls) is listed as “No changes”. Also, the D-tryptophan serum levels entry in data set [2] (oral 0.9 mg/day in drinking water) was “increased D-tryptophan serum levels significantly”. Besides, the activity at 10 µM in data set [3] (read-out: Percentage of CD40 expressing mature DCs) was determined as 15.2 ± 6.5%. Moreover, the activity at 10 µM in data set [3] (read-out: Percentage of CD80 expressing mature DCs) is 12.1 ± 1.7%. Moreover, in data set [3] (read-out: Percentage of CD83 expressing mature DCs), the activity at 10 µM was determined as 7.6 ± 3.3%. For the same compound, the activity at 10 µM in data set [3] (read-out: Percentage of CD86 expressing mature DCs) was determined as 24.1 ± 2.7%. For the same compound, the activity at 10 µM in data set [3] (read-out: Percentage of HLA-DR expressing mature DCs) worked out at 88.9 ± 3%.
